Experimental data taken from PubChem BioAssay AID1963832 (Molecular Pharmacology Branch, DTP, NCI, 2024).

System: 885724-159-R-J1-PDC complex spheroid viability
Test: Anticancer human tumor 885724-159-R-J1-PDC patient-derived pancreatic adenocarcinoma cell line growth inhibition [POLQ]
Conditions: for IC50: curve of first compound; for viability, T/C: stronger effect = lower value
Protocol: Multicellular complex tumor spheroid response to Polymerase (POL) inhibitors (novobiocin, ART-558, RP6685) in combination with a variety of drugs and investigational agents in selected tumor cell lines
The POL inhibitors (novobiocin, ART-558, and RP6685) were evaluated both individually and in combination with standard of care and investigational anticancer small molecules within a complex spheroid model of solid tumors. . Complex spheroids include a stromal component modeled by human endothelial cells (HUVEC) and fibroblasts modeled by human mesenchymal stem cells (MSCs). The concentration ranges selected for each drug and investigational agent were based upon clinically achievable concentrations if the clinical Cmax of the agent was known.
Compounds. The drugs and investigational agents: novobiocin (NSC847541), ART-558 (NSC835418), RP-6685 (NSC848927), peposertib (NSC802822), ceralasertib (NSC780249), elimusertib (NSC800525), camonsertib (NSC841442), AZD-1390 (NSC803789), olaparib (NSC753686), talazoparib (NSC767125), rucaparib (NSC756644), sotorasib (NSC818433), MRTX-1133 (NSC836407), SN-38 (NSC673596), topotecan (NSC609699), epotoside (NSC141540), doxorubicin (NSC123127), gemcitabine (NSC613327), 5-fluorouracil (NSC19893), paclitaxel (NSC125973), vemurafenib (NSC761431), MSA-2 (NSC828583), SN-011 (NSC837082), adavosertib (NSC754352), prexasertib (NSC758257), carboplatin (NSC241240) and oxaliplatin (NSC266046), were obtained from the National Cancer Institute (NCI) Developmental Therapeutics Program Chemical Repository (21). The FDA-approved anticancer drug set is available from the Developmental Therapeutics Program at https://dtp.cancer.gov/organization/dscb/obtaining/. […] The stock solutions were prepared in dimethyl sulfoxide (DMSO, Sigma-Aldrich, St. Louis, MO, cat. D2650), except for the platinum compounds which were prepared in saline (Quality Biological, Gaithersburg, MD, cat. 114-055-101), at 800-fold the tested concentration and stored at -70 degrees C prior to their use. All drugs and investigational agents were tested over a range starting from a high concentration at or near the clinical Cmax and decreasing in half-log increments. If the clinical Cmax for an agent had not been determined, the highest concentration tested was 10 microM, except for SN-38, which was tested at a high concentration of 1 microM.
Cell Culture. All cells were maintained in an incubator at 37 degrees C and 5% CO2 with 95% humidity. The PDC lines were cultured according to standard operating procedures established by the NCI PDMR (https://pdmr.cancer.gov). Table 3 of the manuscript, lists the cell lines along with the number of the three cell types plated to form the mct-spheroids and media for tumor cell growth. After thawing, all PDC lines, except 997537-175-T-J1-PDC and 415267-285-R-J2-PDC, were cultured in Matrigel-coated flasks prepared with a working solution of 1X Ham's F-12 nutrient mix, without supplementation (Thermo Fisher Scientific, cat. 11765054), 100 U/mL penicillin-streptomycin (Thermo Fisher Scientific, cat. 15140122), and 2.5% Matrigel (Corning Inc., Corning, NY, cat. 354248) for the first three passages. The two PDC lines 997537-175-T-J1-PDC and 415267-285-R-J2-PDC were cultured on uncoated flasks. The 857933-349-R-J2-PDC line was cultured in 6C/Colon 1B media containing advanced DMEM/F-12 (Thermo Fisher Scientific, cat. 12634028), 10 mM HEPES (Thermo Fisher Scientific, cat. 15630080), 1X GlutaMAX supplement (Thermo Fisher Scientific, cat. 35050061), 0.1 mg/mL primocin (InvivoGen, San Diego, CA, cat. ant-pm-2), 10% defined fetal bovine serum, heat inactivated (HyClone Laboratories Inc., Logan, UT, cat. SH30070.03HI), 50% L-WRN conditioned media (ATCC, cat. CRL-3276), 1.25 mM N-Acetyl-L-cysteine (Sigma-Aldrich, cat. A9165), 10 mM nicotinamide (Sigma-Aldrich, cat. N0636), 1X B-27 supplement (Thermo Fisher Scientific, cat. 17504044), 1X N-2 supplement (Thermo Fisher Scientific, cat. […]

[1] = second compound 0.0316 µM, first compound 0.0316 µM
[2] = second compound 0.0316 µM, first compound 0.1 µM
[3] = second compound 0.0316 µM, first compound 0.316 µM
[4] = second compound 0.0316 µM, first compound 1 µM
[5] = second compound 0.1 µM, first compound 0.0316 µM
[6] = second compound 0.1 µM, first compound 0.1 µM
[7] = second compound 0.1 µM, first compound 0.316 µM
[8] = second compound 0.1 µM, first compound 1 µM
[9] = second compound 0.316 µM, first compound 0.0316 µM
[10] = second compound 0.316 µM, first compound 0.1 µM
[11] = second compound 0.316 µM, first compound 0.316 µM
[12] = second compound 0.316 µM, first compound 1 µM
[13] = second compound 1 µM, first compound 0.0316 µM
[14] = second compound 1 µM, first compound 0.1 µM
[15] = second compound 1 µM, first compound 0.316 µM
[16] = second compound 1 µM, first compound 1 µM
[17] = second compound 3.16 µM, first compound 0.0316 µM
[18] = second compound 3.16 µM, first compound 0.1 µM
[19] = second compound 3.16 µM, first compound 0.316 µM
[20] = second compound 3.16 µM, first compound 1 µM
[21] = second compound 10 µM, first compound 0.0316 µM
[22] = second compound 10 µM, first compound 0.1 µM
[23] = second compound 10 µM, first compound 0.316 µM
[24] = second compound 10 µM, first compound 1 µM
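Further: spheroids exposed to compounds for 7 days.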

COc1cccc(OCCCN)c1-c1cc(Nc2cnc(C#N)cn2)n[nH]1 + COC1C(OC(N)=O)C(O)C(Oc2ccc3c(O)c(NC(=O)c4ccc(O)c(CC=C(C)C)c4)c(=O)oc3c2C)OC1(C)C
IC50 (second compound 0.0316 µM): 5.21 nM | IC50 (second compound 0.1 µM): 7.41 nM | IC50 (second compound 0.316 µM): 7.34 nM | IC50 (second compound 1 µM): 8.1 nM | IC50 (second compound 3.16 µM): 17.6 nM | IC50 (second compound 10 µM): 6.72 nM | viability, T/C (second compound 0.0316 µM, first compound 0.00316 µM): 58.8% | viability, T/C (second compound 0.0316 µM, first compound 0.01 µM): 45.9% | viability, T/C [1]: 40.8% | viability, T/C [2]: 41.1% | viability, T/C [3]: 44.4% | viability, T/C [4]: 46.8% | viability, T/C (second compound 0.1 µM, first compound 0.00316 µM): 62.2% | viability, T/C (second compound 0.1 µM, first compound 0.01 µM): 46.1% | viability, T/C [5]: 41.2% | viability, T/C [6]: 42.3% | viability, T/C [7]: 45.4% | viability, T/C [8]: 39% | viability, T/C (second compound 0.316 µM, first compound 0.00316 µM): 62.6% | viability, T/C (second compound 0.316 µM, first compound 0.01 µM): 45.3% | viability, T/C [9]: 43.5% | viability, T/C [10]: 46.9% | viability, T/C [11]: 42.5% | viability, T/C [12]: 40.8% | viability, T/C (second compound 1 µM, first compound 0.00316 µM): 63.2% | viability, T/C (second compound 1 µM, first compound 0.01 µM): 48.5% | viability, T/C [13]: 41.8% | viability, T/C [14]: 35.9% | viability, T/C [15]: 45.4% | viability, T/C [16]: 46.4% | viability, T/C (second compound 3.16 µM, first compound 0.00316 µM): 58.7% | viability, T/C (second compound 3.16 µM, first compound 0.01 µM): 55% | viability, T/C [17]: 44.6% | viability, T/C [18]: 44.2% | viability, T/C [19]: 43.2% | viability, T/C [20]: 39.6% | viability, T/C (second compound 10 µM, first compound 0.00316 µM): 59.4% | viability, T/C (second compound 10 µM, first compound 0.01 µM): 45.4% | viability, T/C [21]: 41.5% | viability, T/C [22]: 44.3% | viability, T/C [23]: 43.5% | viability, T/C [24]: 45.1%

COc1cccc2c1C(=O)c1c(O)c3c(c(O)c1C2=O)CC(O)(C(=O)CO)CC3OC1CC(N)C(O)C(C)O1 (centres undefined) + COC1C(OC(N)=O)C(O)C(Oc2ccc3c(O)c(NC(=O)c4ccc(O)c(CC=C(C)C)c4)c(=O)oc3c2C)OC1(C)C
IC50 (second compound 0.0316 µM): 208 nM | IC50 (second compound 0.1 µM): 204 nM | IC50 (second compound 0.316 µM): 201 nM | IC50 (second compound 1 µM): 192 nM | IC50 (second compound 3.16 µM): 197 nM | IC50 (second compound 10 µM): 196 nM | viability, T/C [1]: 71.6% | viability, T/C [2]: 91.5% | viability, T/C [3]: 31.9% | viability, T/C [4]: 11.6% | viability, T/C (second compound 0.0316 µM, first compound 3.16 µM): 6% | viability, T/C (second compound 0.0316 µM, first compound 10 µM): 7.47% | viability, T/C [5]: 71% | viability, T/C [6]: 89.4% | viability, T/C [7]: 31.5% | viability, T/C [8]: 10.3% | viability, T/C (second compound 0.1 µM, first compound 3.16 µM): 5.36% | viability, T/C (second compound 0.1 µM, first compound 10 µM): 7.37% | viability, T/C [9]: 71% | viability, T/C [10]: 93.2% | viability, T/C [11]: 29% | viability, T/C [12]: 9.53% | viability, T/C (second compound 0.316 µM, first compound 3.16 µM): 5.31% | viability, T/C (second compound 0.316 µM, first compound 10 µM): 7.84% | viability, T/C [13]: 65% | viability, T/C [14]: 90.5% | viability, T/C [15]: 28.9% | viability, T/C [16]: 10.3% | viability, T/C (second compound 1 µM, first compound 3.16 µM): 5.98% | viability, T/C (second compound 1 µM, first compound 10 µM): 7.87% | viability, T/C [17]: 69.5% | viability, T/C [18]: 92% | viability, T/C [19]: 28.7% | viability, T/C [20]: 7.45% | viability, T/C (second compound 3.16 µM, first compound 3.16 µM): 6% | viability, T/C (second compound 3.16 µM, first compound 10 µM): 7.69% | viability, T/C [21]: 64.2% | viability, T/C [22]: 85.7% | viability, T/C [23]: 32.2% | viability, T/C [24]: 7.9% | viability, T/C (second compound 10 µM, first compound 3.16 µM): 6.39% | viability, T/C (second compound 10 µM, first compound 10 µM): 7.8%
